US11402367B2, “Integrated multi-electrode array and trans-endothelial electrical resistance in organ-on-a-chip microsystems” (President and Fellows of Harvard College, priority 2017, dated 2022)

Key:
[1] = tested on: hamster cardiomyocytes; details: TNF-α at 200 nanograms/ml^3; cited from earlier work
[2] = tested on: endothelial layer (HUVECs); assay: TEER and capacitance measurement of the endothelial layer in the MEA-TEER Heart-on-Chip; type: cell-based, human; details: for effect on TEER values / endothelial barrier: TNF-α 2 μg/mL overnight, isoproterenol 50 nM, 30 minutes, FIG. 5A, 5B
Procedure: The MEA-TEER chips are surface-treated with an oxygen plasma (Atto, Diener electronic GmbH, Germany at O2, 15 standard cubic centimeters per minute (“sccm”), 100 Watts, 30 seconds) to create hydrophilic, sterile, flow systems. Both apical and basal channels 116, 117, 216, 217 are coated overnight with human fibronectin (Sigma at 100 micrograms (“μg”/mL in PBS with Mg^2+ and Ca^2+ at 4° C.). HUVECs were seeded at 2*10^6 cell per mL in the apical microchannel, and, then, left static overnight.
(§1) Cardiomyocytes are seeded at 2*10^6 cell per mL in the basal microchannel, followed by 3 hours to overnight inculcation, before connecting both channels 116, 117, 216, 217 to flow at 60 microliters (“μL”)/hr. Flow is controlled by a peristaltic pump (Ismatech) and connections re in Pharmed tubing (Cole-Parmer) having a 0.511 inner diameter. […] To challenge the endothelial barrier TNF (Sigma) is added at 2 μg/mL in the bottom microchannel 117, 217 during overnight flow. Isoproterenol (Sigma) 50 nanomolar (“nM”) is added to the endothelial microchannel for 30 minutes followed by MEA measurement.
TEER measurements are carried out by applying a 10 microamperes (“μA”) sinusoidal excitation signal in a four-electrode set-up in the frequency range 100 KHz-10 hertz (“Hz”). AC measurements are preferable for TEER measurements to avoid charging effects over the cell membranes and the electrodes. The four-electrode set-up, utilizing one opposing pair of electrodes for current excitation and another opposing pair of electrodes for voltage sensing, provides benefits of eliminating contact resistance associated with two electrode measurements.
TEER and capacitance values are derived using the equivalent circuit and model depicted in FIGS. 3A, 6A, and 6B. A resistor Rsol describes the solution conductivity, while the electric response of the endothelial layer is modeled using a resistor (RTEER) and a constant phase element (CPEt) in parallel to extract TEER of the cell-cell junctions, as well as the contribution of cell membrane capacitance and, indirectly, the overall monolayer surface area.

[3] = tested on: human induced pluripotent stem cell-derived cardiomyocytes (hiPSC-CMs, Cor.4U); assay: MEA measurement of cardiac field potentials in the MEA-TEER Heart-on-Chip; type: cell-based; details: isoproterenol 50 nM; basal beat rate 60 beats per minute; FIG. 5C
Excerpt: HUVECs (Lonza) were expanded in EGM media (Lonza) and used at passages 2-6 in the chip experiments. Human induced pluripotent stem cell-derived cardiomyocytes hiPSC-CMs, Cor.4U, Axiogenesis) were handled according to the vendor's instructions and used a passage 1 after thawing. Briefly, cryopreserved cells were thawed on fibronectin-coated cell culture vessels in the presence of 5 […] puromycin to select for MYH6-positive cells. Three hours after thawing, the puromycin containing media was gently refreshed to wash out remaining cryopreservant (DMSO). Twenty-four hours after seeding, cell culture media was refreshed without puromycin. The following day, the cardiomyocytes were replated into the chips using 0.5% trypsin. […]
Spontaneous cardiac field potentials (“FPs”) are recorded from cardiomyocytes using Platinum and Platinum Black MEAs with the commercial Multi-Channel-System USB-MEA60-Inv-BC-System, Multi-Channel-Systems (MCS) GmbH. […] Cardiac FPs are recorded for 120 seconds for each measurement using Cardio2D software and are analyzed with Cardio2D+ (both from Multi Channel Systems). Measured parameters, including FP duration (FPD, milliseconds), peak-to-peak interval (PPI, seconds), beating rate (beats per minute), and conduction velocity (CV, centimer s_1) are exported into Microsoft Excel files for further analysis. […]

[4] = 100 nM isoproterenol; mono-channel fluidic system; cited from earlier work
[5] = tested on: myocardial tissue (cardiomyocytes); assay: Immunohistochemistry of myocardial tissue on the MEA platform (alpha-actinin); type: cell-based, human; details: isoproterenol treatment; FIGS. 4D-4E
Procedure: as §1
Chips are rinsed in phosphate-buffered saline and fixated in 4% paraformaldehyde (Sigma) for 15 minutes at room temperature. ICC is carried out after permeabilization in phosphate-buffered saline with 0.05-0.1% Triton X-100 (Sigma) and blocking for 30 minutes in 3-5% Bovine Serum Albumin (Jackson ImmunoResearch, West Grove, Pa.) or 10% goat serum in phosphate-buffered saline with 0.05-0.1% Triton-X 100. Primary antibodies are applied in 2% goat serum or 0.5% BSA over-night at 4° C. or at RT […]

[6] = tested on: endothelial layer (HUVECs); type: cell-based, human; details: adherens junction staining; FIGS. 4A-4C, 9A-9B, 10A-10C
Procedure: Cardiomyocytes are seeded at 2*10^6 cell per mL in the basal microchannel, followed by 3 hours to overnight inculcation, before connecting both channels 116, 117, 216, 217 to flow at 60 microliters (“μL”)/hr. Flow is controlled by a peristaltic pump ([…]) and connections re in […] tubing (Cole-Parmer) having a 0.511 inner diameter. […] To challenge the endothelial barrier TNF (Sigma) is added at 2 μg/mL in the bottom microchannel 117, 217 during overnight flow. Isoproterenol (Sigma) 50 nanomolar (“nM”) is added to the endothelial microchannel for 30 minutes followed by MEA measurement. Chips are rinsed in phosphate-buffered saline and fixated in 4% paraformaldehyde (Sigma) for 15 minutes at room temperature. ICC is carried out after permeabilization in phosphate-buffered saline with 0.05-0.1% Triton X-100 (Sigma) and blocking for 30 minutes in 3-5% Bovine Serum Albumin (Jackson ImmunoResearch, West Grove, Pa.) or 10% goat serum in phosphate-buffered saline with 0.05-0.1% Triton-X 100. Primary antibodies are applied in 2% goat serum or 0.5% BSA over-night at 4° C. or at RT The following primary antibodies are used for ICC experiments: mouse anti-vascular endothelial (VE)-cadherin (Abcam, 1:100), alpha-actinin (Abcam, 1:200) Cells are washed three times in phosphate-buffered saline with 0.05-0.1% Triton-X 100, followed by staining with secondary antibody staining for 30-60 min at RT. […]

**Q.** For TNF-α, which “contractility of hamster cardiomyocytes” value [1] is on record?
**A.** reduce contractility

**Q.** What about the “effect on TEER values / endothelial barrier” value [2] of the same compound?
**A.** TEER values decrease to the same values as ECM-coated chips without cells chip

**Q.** What about the “capacitance after the TNF-α challenge” value ([2]; TNF-α 2 μg/mL, from 194±33 nF after stabilization at day 2) of the same compound?
**A.** 2968±52 nF

**Q.** What about the “effect on TEER capacitance” value ([2]; TNF-α addition, FIG. 5B) of the same compound?
**A.** increasing the capacitance significantly

**Q.** What about the “TEER values after TNF-α challenge” value ([2]; after 24 hours TNF-α 2 μg/mL, dropping from 230±45 Ω before challenge, p<0.01) of the same compound?
**A.** 15±13 Ω

**Q.** Which results are given for `CC(C)NCC(O)c1ccc(O)c(O)c1` (stereo not shown) [isoproterenol]?
**A.** increase in beat rate [3]: 60%; change of beat rate [4]: 60%; changes of cardiomyocytes by IHC versus control [5]: do not show major changes; integrity of the endothelial barrier by ICC [6]: does not show any change in integrity of a barrier; effect on TEER values / endothelial barrier [2]: does not affect the endothelial barrier
